Experimental data published in patent US20230399342A1 (Incyte Corporation, priority 2022, published 2023).

Key:
[1] = molecular target: DGKζ (Homo sapiens (Human), UniProt Q13574); test: In vitro DGKζ inhibition assay (ADP-Glo); format: biochemical; details: His-tagged human recombinant enzyme, 0.4 nM DGK, 30 μM ATP, 20 μM DLG, 90 minute incubation
Procedure, shortened: (§1)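 His-tagged human DGKα (0.1 nM, 50 μM ATP) or DGKζ (0.4 nM, 30 μM ATP), each with 20 μM DLG, in Tris pH 7.5 buffer with CHAPS, Mg2+, Ca2+.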

[2] = molecular target: DGKα (Homo sapiens (Human), UniProt P23743); test: In vitro DGKα inhibition assay (ADP-Glo); format: biochemical; details: His-tagged human recombinant enzyme, 0.1 nM DGKα, 50 μM ATP, 20 μM DLG, 90 minute incubation
Procedure, shortened: as §1

DGKα, sequence (P23743 whole entry): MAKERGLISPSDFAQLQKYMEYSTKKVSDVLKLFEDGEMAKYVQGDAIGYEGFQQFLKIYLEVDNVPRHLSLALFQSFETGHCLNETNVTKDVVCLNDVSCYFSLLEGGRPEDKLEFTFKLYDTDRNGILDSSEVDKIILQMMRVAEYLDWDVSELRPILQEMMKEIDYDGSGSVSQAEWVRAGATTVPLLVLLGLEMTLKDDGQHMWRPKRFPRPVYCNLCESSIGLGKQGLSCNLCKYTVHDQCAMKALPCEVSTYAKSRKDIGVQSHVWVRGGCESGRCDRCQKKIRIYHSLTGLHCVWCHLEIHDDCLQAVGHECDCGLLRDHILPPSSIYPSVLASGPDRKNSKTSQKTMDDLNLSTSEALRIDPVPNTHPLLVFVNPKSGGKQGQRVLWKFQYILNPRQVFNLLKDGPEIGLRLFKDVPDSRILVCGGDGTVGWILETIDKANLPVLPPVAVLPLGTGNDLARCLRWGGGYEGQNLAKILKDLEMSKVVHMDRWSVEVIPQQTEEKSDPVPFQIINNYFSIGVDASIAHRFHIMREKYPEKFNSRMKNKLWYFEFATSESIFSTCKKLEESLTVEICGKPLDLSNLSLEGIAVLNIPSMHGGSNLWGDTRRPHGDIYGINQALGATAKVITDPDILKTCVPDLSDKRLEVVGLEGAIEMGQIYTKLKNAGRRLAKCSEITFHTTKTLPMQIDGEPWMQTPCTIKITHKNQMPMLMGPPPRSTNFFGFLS
DGKζ, sequence (Q13574 whole entry): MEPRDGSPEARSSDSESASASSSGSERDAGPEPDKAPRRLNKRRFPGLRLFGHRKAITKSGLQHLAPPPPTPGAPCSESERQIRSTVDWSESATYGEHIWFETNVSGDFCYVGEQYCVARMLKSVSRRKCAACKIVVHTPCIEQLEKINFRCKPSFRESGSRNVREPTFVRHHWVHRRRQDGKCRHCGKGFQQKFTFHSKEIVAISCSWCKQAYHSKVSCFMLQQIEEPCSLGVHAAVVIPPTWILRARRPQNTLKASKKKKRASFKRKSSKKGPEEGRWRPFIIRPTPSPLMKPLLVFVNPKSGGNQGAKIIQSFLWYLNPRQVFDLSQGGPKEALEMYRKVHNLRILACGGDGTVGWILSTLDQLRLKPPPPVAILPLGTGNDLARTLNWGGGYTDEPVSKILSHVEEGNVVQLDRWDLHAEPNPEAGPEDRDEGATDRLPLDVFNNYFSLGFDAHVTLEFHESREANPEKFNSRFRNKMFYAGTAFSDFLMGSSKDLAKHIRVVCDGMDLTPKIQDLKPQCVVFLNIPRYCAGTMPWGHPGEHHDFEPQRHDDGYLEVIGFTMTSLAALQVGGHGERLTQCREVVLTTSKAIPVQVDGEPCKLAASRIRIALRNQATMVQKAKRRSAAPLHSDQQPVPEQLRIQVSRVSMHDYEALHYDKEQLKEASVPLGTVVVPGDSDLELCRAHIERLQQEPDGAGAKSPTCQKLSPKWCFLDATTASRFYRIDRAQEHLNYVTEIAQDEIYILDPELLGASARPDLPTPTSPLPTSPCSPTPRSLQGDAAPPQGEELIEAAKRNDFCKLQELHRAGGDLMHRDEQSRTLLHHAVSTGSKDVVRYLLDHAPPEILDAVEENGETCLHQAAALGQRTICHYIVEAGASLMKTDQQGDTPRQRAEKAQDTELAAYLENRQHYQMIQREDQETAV

Question: How did the IC50 [1] turn out when `Cc1nc2c(N3C[C@@H](C)N(C(c4ccc(F)c(Cl)c4F)C4CC(F)(F)C4)C[C@@H]3C)nc3nncn3c2n1C[C@@H]1CCCO1` (stereo partly drawn) [Example 57, 4-((2S,5R)-4-((3-Chloro-2,4-difluorophenyl)(3,3-difluorocyclobutyl)methyl)-2,5-dimethylpiperazin-1-yl)-2-methyl-1-(((S)-tetrahydrofuran-2-yl)methyl)-1H-[1,2,4]triazolo[3,4-b]purine] was run?
Answer: ≤ 20 nM

Question: And the IC50 [2]?
Answer: ≤ 20 nM

Question: For `Cc1nc2c(N3C[C@@H](C)N(C(c4ccc(C(F)(F)F)c(Cl)c4)C4CC(F)(F)C4)C[C@@H]3C)nc3nncn3c2n1C[C@@H]1CCCO1` (stereo partly drawn) [Example 58, 4-((2S,5R)-4-((3-Chloro-4-(trifluoromethyl)phenyl)(3,3-difluorocyclobutyl)methyl)-2,5-dimethylpiperazin-1-yl)-2-methyl-1-(((S)-tetrahydrofuran-2-yl)methyl)-1H-[1,2,4]triazolo[3,4-b]purine], which IC50 [1] is on record?
Answer: ≤ 20 nM

Question: What about the IC50 [2] of the same compound?
Answer: ≤ 20 nM

Question: `Cc1nc2c(N3C[C@@H](C)N(C(c4ccc(Cl)c(C(F)(F)F)c4)C4CC(F)(F)C4)C[C@@H]3C)nc3nncn3c2n1C[C@@H]1CCCO1` (stereo partly drawn) [Example 59, 4-((2S,5R)-4-((4-Chloro-3-(trifluoromethyl)phenyl)(3,3-difluorocyclobutyl)methyl)-2,5-dimethylpiperazin-1-yl)-2-methyl-1-(((S)-tetrahydrofuran-2-yl)methyl)-1H-[1,2,4]triazolo[3,4-b]purine] was tested. Which IC50 [1] did it give?
Answer: ≤ 20 nM

Question: What about the IC50 [2] of the same compound?
Answer: ≤ 20 nM

Question: With `Cc1nc2c(N3C[C@@H](C)N(C(c4ccc(Cl)cc4)C4CC(F)(F)C4)C[C@@H]3C)nc3nncn3c2n1C[C@@H]1CCCO1` (stereo partly drawn) [Example 60, 4-((2S,5R)-4-((4-Chlorophenyl)(3,3-difluorocyclobutyl)methyl)-2,5-dimethylpiperazin-1-yl)-2-methyl-1-(((S)-tetrahydrofuran-2-yl)methyl)-1H-[1,2,4]triazolo[3,4-b]purine] as the compound, how does the IC50 [1] read?
Answer: ≤ 20 nM

Question: What about the IC50 [2] of the same compound?
Answer: ≤ 20 nM

Question: With `Cc1nc2c(N3C[C@@H](C)N(C(c4ccc(Br)cc4)C4CC(F)(F)C4)C[C@@H]3C)nc3nncn3c2n1C[C@@H]1CCCO1` (stereo partly drawn) [Example 61, 4-((2S,5R)-4-((4-Bromophenyl)(3,3-difluorocyclobutyl)methyl)-2,5-dimethylpiperazin-1-yl)-2-methyl-1-(((S)-tetrahydrofuran-2-yl)methyl)-1H-[1,2,4]triazolo[3,4-b]purine] as the compound, how does the IC50 [1] read?
Answer: ≤ 20 nM

Question: And the IC50 [2]?
Answer: ≤ 20 nM

Question: What does the source list for `Cc1nc2c(N3C[C@@H](C)N(C(c4ccc(F)c(Br)c4)C4CC(F)(F)C4)C[C@@H]3C)nc3nncn3c2n1C[C@@H]1CCCO1` (stereo partly drawn) [Example 62, 4-((2S,5R)-4-((3-Bromo-4-fluorophenyl)(3,3-difluorocyclobutyl)methyl)-2,5-dimethylpiperazin-1-yl)-2-methyl-1-(((S)-tetrahydrofuran-2-yl)methyl)-1H-[1,2,4]triazolo[3,4-b]purine]?
Answer: IC50 [1]: ≤ 20 nM; IC50 [2]: ≤ 20 nM

Question: Which results are given for `Cc1nc2c(N3C[C@@H](C)N(C(c4ccc(Br)c(F)c4)C4CC(F)(F)C4)C[C@@H]3C)nc3nncn3c2n1C[C@@H]1CCCO1` (stereo partly drawn) [Example 63, 4-((2S,5R)-4-((4-Bromo-3-fluorophenyl)(3,3-difluorocyclobutyl)methyl)-2,5-dimethylpiperazin-1-yl)-2-methyl-1-(((S)-tetrahydrofuran-2-yl)methyl)-1H-[1,2,4]triazolo[3,4-b]purine]?
Answer: IC50 [1]: ≤ 20 nM; IC50 [2]: ≤ 20 nM

Question: Which IC50 [1] does the source give for `C[C@@H]1CN(c2nc3nncn3c3c2ncn3CCN(C)C)[C@@H](C)CN1C(c1ccc(Br)cc1)C1CC(F)(F)C1` (stereo partly drawn) [Example 65, 2-(4-((2S,5R)-4-((4-Bromophenyl)(3,3-difluorocyclobutyl)methyl)-2,5-dimethylpiperazin-1-yl)-1H-[1,2,4]triazolo[3,4-b]purin-1-yl)-N,N-dimethylethan-1-amine] here?
Answer: ≤ 20 nM

Question: And the IC50 [2]?
Answer: ≤ 20 nM
